The record followed here is patent US20040006328A1, “Targeting of sebaceous follicles as a treatment of sebaceous gland disorders” (priority 1999, published 2004).

The nature of data set [1]: Methylene blue staining of sebaceous glands in ex vivo tissue (topical application, frozen sections, light microscopy). In kind it is in vitro ADME, human. As to the method: (§1) Freshly excised human skin from a face-lift procedure was provided by a plastic surgeon. The skin originated from the periauricular area and the anterior hairline of a middle-aged fair-skinned person. The samples were stored at 4 ? C. overnight. On the day of experiment, the tissue was shaved with a razor and defatted by rubbing the surface with alcohol swabs for 1 minute. After cutting the skin in smaller pieces, the tissue was placed on saline-soaked gauzes. Methylene blue, a cationic hydrophilic dye was dissolved in distilled water, alcohol, and propylene glycol at a concentration of 5% and applied on the surface of the skin in a thick layer at 31 ? C. […] 5 mm-punch biopsies were performed and the samples were processed frozen sections.
There was minimal non-specific staining of the interstitial dermis.
as §1, with “5% and was mixed in a commercially available aqueous-based lotion (50 mL of dissolved dye in 500 mg of lotion) and applied on” for “5% and applied on”
Methylene blue dye was also administered into the sebaceous glands via Retina Gel® (Ortho Pharmaceuticals) as the carrier vehicle. Typically, a sufficient amount of methylene blue (50 mL of dissolved dye in 500 mg of gel) was combined with hydroxypropyl cellulose, butylated hydroxytoluene and alcohol and applied to the epidermis.

The nature of data set [2]: Localization of applied dyes in in-vitro human sebaceous skin samples by frozen sectioning and light microscopy. In kind it is in vitro ADME. The source says:
Fresh, in-vitro human sebaceous skin samples were used. Dye solutions and particle suspensions were applied to the samples at different concentration and in various vehicles, followed by localization of the dye by frozen sectioning and light microscopy. […] Apparently, almost any dye or suspension can be delivered to the upper infundibulum by direct solvent flow into the pore. Optimization of the concentration and solvent for MB and ICG can be determined by one skilled in the art. […] Physical means of increasing dye uptake into the infundibulum, including ultrasonication with a tissue dismembranator at low intensity, and a simple pressure-applicator intended to open the surface pores while providing a pressure gradient in favor of dye uptake is possible.

As to `CN(C)c1ccc2nc3ccc(=[N+](C)C)cc-3sc2c1` [Methylene blue], the “non-specific staining of the interstitial dermis (FIG. 9)” value in data set [1] is on record as “minimal”. In data set [1], the “non-specific staining of the interstitial dermis (FIG. 10)” value is given as “minimal”. In addition, the “surface staining after removal of excess dye” value is recorded as “lightly stained epidermis with accentuation of the staining in the follicular pores” in data set [1] (5% dye solution mixed in aqueous-based lotion (50 mL of dissolved dye in 500 mg of lotion), 31 C, 1 hour); “lightly stained epidermis with accentuation of the staining in the follicular pores” in data set [1] (5% in distilled water, alcohol and propylene glycol, thick layer at 31 C, 1 hour). Also, in data set [1] (5% dye solution mixed in aqueous-based lotion, 31 C, 1 hour, frozen sections), the “staining in histologic sections (light microscopy, FIG. 10)” value was “dense blue staining of the epidermis and of some sebaceous glands and entire hair follicles”. Further, the “staining in histologic sections (light microscopy, FIG. 9)” value in data set [1] (5% in distilled water, alcohol and propylene glycol, 31 C, 1 hour, 5 mm punch biopsies, frozen sections) is “dense blue staining of the epidermis and of some sebaceous glands and entire hair follicles”. Also, the “penetration into the sebaceous glands (light microscopy)” value in data set [1] (Retina Gel as carrier vehicle (50 mL of dissolved dye in 500 mg of gel)) was “Penetration of the methylene blue dye into the sebaceous glands”. For the same molecule, the “increase of rate of uptake by iontophoresis” value in data set [2] is on record as “at least one order of magnitude”. Moreover, the “entry of dye into the infundibulum” value in data set [2] (fresh in-vitro human sebaceous skin, dye solutions at different concentrations and in various vehicles) is “rapidly enter the infundibulum”. Moreover, the “staining of the sebaceous glands” value in data set [2] (fresh in-vitro human sebaceous skin, requiring several hours) is “deeply and selectively stain the sebaceous glands”.
